Experimental data reported in patent US10118930B2, “Piperidinylpyrazolopyrimidinones and their use” (BAYER PHARMA AKTIENGESELLSCHAFT, priority 2015, dated 2018).
pIC50: −log10 of the molar value. Where a name gives a salt, the structure may show the parent alone.

Each compound was assayed on clot lysis (fibrinolysis) in diluted human citrated plasma, tPA-induced (assay: Plasma-based clot lysis assay (5%)). Details: human citrated platelet-poor plasma 5%, fibrinogen 3 μM, CaCl2 10 mM, tPA 0.2 nM, 37° C., OD at 405 nm.
Type: biochemical
Method in brief: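 Clot formation and breakdown triggered by CaCl2 (10 mM final) plus tPA (0.2 nM final) at 37° C, in 5% diluted human plasma supplemented with 3 μM fibrinogen (HEPES/NaCl/Brij buffer, pH 7). IC50 obtained from time courses relative to a blank control.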

Row | SMILES | pIC50
1 | O=c1cc(C2CCNCC2)n2ncc(-c3nc(-c4cc(F)c(F)cc4F)no3)c2[nH]1 [Example 190, 7-(piperidin-4-yl)-3-[3-(2,4,5-trifluorophenyl)-1,2,4-oxadiazol-5-yl]pyrazolo[1,5-a]pyrimidin-5 (4H)-one hydrochloride] | 7.47
2 | O=c1cc(C2CCNCC2)n2ncc(-c3nnc(CCN4CCOCC4)o3)c2[nH]1 [Example 282, 3-{5-[2-(morpholin-4-yl)ethyl]-1,3,4-oxadiazol-2-yl}-7-(piperidin-4-yl)pyrazolo[1,5-a]pyrimidin-5(4H)-one hydrochloride] | 7.47
3 | Cc1noc(-c2cnn3c(C4CCNCC4)cc(=O)[nH]c23)n1 [Example 32, 3-(3-Methyl-1,2,4-oxadiazol-5-yl)-7-(piperidin-4-yl)pyrazolo[1,5-a]pyrimidin-5(4H)-one hydrochloride] | 7.82
4 | O=c1cc(C2CCNCC2)n2ncc(-c3ccc(F)cc3)c2[nH]1 [Example 4, 3-(4-Fluorophenyl)-7-(piperidin-4-yl)pyrazolo[1,5-a]pyrimidin-5(4H)-one hydrochloride] | 7.40
5 | COc1ccccc1-c1nc(-c2cnn3c(C4CCNCC4)cc(=O)[nH]c23)no1 [Example 219, 3-[5-(2-methoxyphenyl)-1,2,4-oxadiazol-3-yl]-7-(piperidin-4-yl)pyrazolo[1,5-a]pyrimidin-5(4H)-one hydrochloride] | 7.46
6 | COc1ccc(-c2noc(-c3cnn4c(C5CCNCC5)cc(=O)[nH]c34)n2)cc1F [Example 122, 3-[3-(3-Fluoro-4-methoxyphenyl)-1,2,4-oxadiazol-5-yl]-7-(piperidin-4-yl)pyrazolo[1,5-a]pyrimidin-5(4H)-one hydrochloride] | 7.46
7 | Cc1ccc(Cl)cc1-c1nc(-c2cnn3c(C4CCNCC4)cc(=O)[nH]c23)no1 [Example 230, 3-[5-(5-chloro-2-methylphenyl)-1,2,4-oxadiazol-3-yl]-7-(piperidin-4-yl)pyrazolo[1,5-a]pyrimidin-5(4H)-one hydrochloride] | 7.44
8 | O=c1cc(C2CCNCC2)n2ncc(-c3nc(-c4cc(Cl)cc(Cl)c4)no3)c2[nH]1 [Example 151, 3-[3-(3,5-Dichlorophenyl)-1,2,4-oxadiazol-5-yl]-7-(piperidin-4-yl)pyrazolo[1,5-a]pyrimidin-5 (4H)-one hydrochloride] | 7.36
9 | COc1ccc(-c2noc(-c3cnn4c(C5CCNCC5)cc(=O)[nH]c34)n2)cc1Cl [Example 142, 3-[3-(3-Chloro-4-methoxyphenyl)-1,2,4-oxadiazol-5-yl]-7-(piperidin-4-yl)pyrazolo[1,5-a]pyrimidin-5(4H)-one hydrochloride] | 7.39
10 | O=c1cc(C2CCNCC2)n2nc(-c3ccccc3)c(Br)c2[nH]1 [Example 29, 3-Bromo-2-phenyl-7-(piperidin-4-yl)pyrazolo[1,5-a]pyrimidin-5(4H)-one hydrochloride] | 7.70
11 | O=c1cc(C2CCNCC2)n2ncc(-c3cccs3)c2[nH]1 [Example 59, 7-(Piperidin-4-yl)-3-(2-thienyl)pyrazolo[1,5-a]pyrimidin-5(4H)-one hydrochloride] | 7.82
12 | O=c1cc(C2CCNCC2)n2ncc(-c3cccc(OC(F)(F)F)c3)c2[nH]1 [Example 70, 7-(Piperidin-4-yl)-3-[3-(trifluoromethoxy)phenyl]pyrazolo[1,5-a]pyrimidin-5(4H)-one hydrochloride] | 7.85
13 | Cc1nn2c(C3CCNCC3)cc(=O)[nH]c2c1-c1nc(C(C)(C)C)no1 [Example 296, 3-(3-tert-butyl-1,2,4-oxadiazol-5-yl)-2-methyl-7-(piperidin-4-yl)pyrazolo[1,5-a]pyrimidin-5(4H)-one hydrochloride] | 7.64
14 | O=c1cc(C2CCNCC2)n2ncc(-c3nc(-c4ccc(C(F)(F)F)c(F)c4)no3)c2[nH]1 [Example 134, 3-{3-[3-Fluoro-4-(trifluoromethyl)phenyl]-1,2,4-oxadiazol-5-yl}-7-(piperidin-4-yl)pyrazolo[1,5-a]pyrimidin-5(4H)-one hydrochloride] | 7.37
15 | O=c1cc(C2CCNCC2)n2ncc(-c3nnc(C4CCC4)o3)c2[nH]1 [Example 294, 3-(5-cyclobutyl-1,3,4-oxadiazol-2-yl)-7-(piperidin-4-yl)pyrazolo[1,5-a]pyrimidin-5 (4H)-one hydrochloride] | 7.43
16 | CC(C)CCc1csc(-c2cnn3c(C4CCNCC4)cc(=O)[nH]c23)n1 [Example 304, 3-[4-(3-methylbutyl)-1,3-thiazol-2-yl]-7-(piperidin-4-yl)pyrazolo[1,5-a]pyrimidin-5 (4H)-one hydrochloride] | 7.62
17 | O=c1cc(C2CCNCC2)n2ncc(-c3nnc(CC(F)(F)F)o3)c2[nH]1 [Example 289, 7-(piperidin-4-yl)-3-[5-(2,2,2-trifluoroethyl)-1,3,4-oxadiazol-2-yl]pyrazolo[1,5-a]pyrimidin-5(4H)-one hydrochloride] | 7.57
18 | O=C(Nc1cccc2ccccc12)c1cnn2c(C3CCNCC3)cc(=O)[nH]c12 [Example 75, N-(naphthalen-1-yl)-5-oxo-7-(piperidin-4-yl)-4,5-dihydropyrazolo[1,5-a]pyrimidine-3-carboxamide] | 7.40

Other lines, results leading:

Row | pIC50 | SMILES
19 | 7.66 | O=c1cc(C2CCNCC2)n2ncc(-c3coc(-c4ccccc4)n3)c2[nH]1 [Example 372, 3-(2-phenyl-1,3-oxazol-4-yl)-7-(piperidin-4-yl)pyrazolo[1,5-a]pyrimidin-5(4H)-one hydrochloride]
20 | 7.66 | Cc1ccc(-c2csc(-c3cnn4c(C5CCNCC5)cc(=O)[nH]c34)n2)c(C)c1 [Example 312, 3-[4-(2,4-dimethylphenyl)-1,3-thiazol-2-yl]-7-(piperidin-4-yl)pyrazolo[1,5-a]pyrimidin-5(4H)-one hydrochloride]
21 | 7.96 | Cc1ccc(-c2noc(-c3c(C)nn4c(C5CCNCC5)cc(=O)[nH]c34)n2)cc1 [Example 306, 2-methyl-3-[3-(4-methylphenyl)-1,2,4-oxadiazol-5-yl]-7-(piperidin-4-yl)pyrazolo[1,5-a]pyrimidin-5(4H)-one hydrochloride]
22 | 7.41 | CC(C)(C)C(=O)c1cnn2c(C3CCNCC3)cc(=O)[nH]c12 [Example 456, 3-(2,2-dimethylpropanoyl)-7-(piperidin-4-yl)pyrazolo[1,5-a]pyrimidin-5(4H)-one hydrochloride]
23 | 7.41 | Cc1nn2c(C3CCNCC3)cc(=O)[nH]c2c1C(=O)OC(C)(C)C [Example 468, Tert-butyl 2-methyl-5-oxo-7-(piperidin-4-yl)-4,5-dihydropyrazolo[1,5-a]pyrimidine-3-carboxylate hydrochloride]
24 | 6.92 | O=C(c1cnn2c(C3CCNCC3)cc(=O)[nH]c12)N1CCC12CCOCC2 [Example 359, 3-(7-oxa-1-azaspiro[3.5]non-1-ylcarbonyl)-7-(piperidin-4-yl)pyrazolo[1,5-a]pyrimidin-5(4H)-one trifluoroacetate]
25 | 7.52 | CCC(=O)c1cnn2c(C3CCNCC3)cc(=O)[nH]c12 [Example 371, 7-(piperidin-4-yl)-3-propanoylpyrazolo[1,5-a]pyrimidin-5(4H)-one hydrochloride]
26 | 7.52 | O=c1cc(C2CCNCC2)n2ncc(-c3noc(C4CCC(F)(F)CC4)n3)c2[nH]1 [Example 393, 3-(5-(4,4-difluorocyclohexyl)-1,2,4-oxadiazol-3-yl)-7-(piperidin-4-yl)pyrazolo[1,5-a]pyrimidin-5(4H)-one hydrochloride]
27 | 7.92 | O=C(c1cnn2c(C3CCNCC3)cc(=O)[nH]c12)N1CC(F)(F)C1 [Example 326, 3-[(3,3-difluoroazetidin-1-yl)carbonyl]-7-(piperidin-4-yl)pyrazolo[1,5-a]pyrimidin-5 (4H)-one hydrochloride]
28 | 7.52 | Cc1nn2c(C3CCNCC3)cc(=O)[nH]c2c1C(=O)N1CC(C)CC(C)C1 (centres unmarked) [Example 421, 3-[(3,5-dimethyl-piperidin-1-yl)carbonyl]-2-methyl-7-(piperidin-4-yl) pyrazolo[1,5-a] pyrimidin-5(4H)-one hydrochloride]
29 | 7.25 | Cc1nn2c(C3CCNCC3)cc(=O)[nH]c2c1-c1nnc(-c2ccccc2F)o1 [Example 445, 3-[5-(2-fluorophenyl)-1,3,4-oxadiazol-2-yl]-2-methyl-7-(piperidin-4-yl)pyrazolo[1,5-a]pyrimidin-5(4H)-one hydrochloride]
30 | 7.70 | Cc1nn2c(C3CCNCC3)cc(=O)[nH]c2c1-c1nc(C2CCCCC2)no1 [Example 350, 3-(3-cyclohexyl-1,2,4-oxadiazol-5-yl)-2-methyl-7-(piperidin-4-yl)pyrazolo[1,5-a]pyrimidin-5(4H)-one hydrochloride]
31 | 8.10 | O=C(c1cnn2c(C3CCNCC3)cc(=O)[nH]c12)C1CC1 [Example 453, 3-(cyclopropylcarbonyl)-7-(piperidin-4-yl)pyrazolo[1,5-a]pyrimidin-5(4H)-one hydrochloride]
32 | 7.62 | Cc1nn2c(C3CCNCC3)cc(=O)[nH]c2c1C(=O)NC1CCCC1 [Example 417, N-cyclopentyl-2-methyl-5-oxo-7-(piperidin-4-yl)-4,5-dihydro-pyrazolo[1,5-a] pyrimidine-3-carboxamide hydrochloride]
33 | 8.00 | Cc1nn2c(C3CCNCC3)cc(=O)[nH]c2c1-c1nc(Cc2ccc(O)cc2)no1 [Example 446, 3-[3-(4-hydroxybenzyl)-1,2,4-oxadiazol-5-yl]-2-methyl-7-(piperidin-4-yl)pyrazolo[1,5-a]pyrimidin-5(4H)-one hydrochloride]
34 | 7.11 | CCN(C)C(=O)c1c(C)nn2c(C3CCNCC3)cc(=O)[nH]c12 [Example 424, N-ethyl-N,2-dimethyl-5-oxo-7-(piperidin-4-yl)-4,5-dihydro-pyrazolo[1,5-a] pyrimidine-3-carboxamide hydrochloride]
35 | 7.43 | CCCN(CC1CC1)C(=O)c1c(C)nn2c(C3CCNCC3)cc(=O)[nH]c12 [Example 406, N-(cyclopropyl-methyl)-2-methyl-5-oxo-7-(piperidin-4-yl)-N-propyl-4,5-dihydropyrazolo [1,5-a]pyrimidine-3-carboxamide hydrochloride]
